Experimental data from patent publication US4110327A, “2,3 Diketo-piperazinocarbonylamino alkanoic acids and derivatives” (Toyama Chemical Co., Ltd., priority 1974, dated 1978).
≈ marks a conversion by molar mass, not a printed value.

What was measured:
[1] = Acute toxicity LD50 i.v. in mouse; settings: in vivo, iv
Text: The present penicillins and cephalosporins have generally low toxicity.

Proteus vulgaris = assay: MIC against clinical isolates; format: cell-based; settings: clinical isolate, unit assumed
Proteus mirabilis = assay: MIC against clinical isolates; format: cell-based; settings: clinical isolate, unit assumed
Proteus morganii = assay: MIC against clinical isolates; format: cell-based; settings: clinical isolate, unit assumed
Shigella sonnei = assay: MIC against clinical isolates; format: cell-based; settings: unit assumed
Experimental: (§1) The minimum inhibitory concentrations (MIC) was determined by the plate method disclosed in "Chemotherapy" (Japan), Vol. 16, (1968), pages 98 - 99. The culture medium used was a Heart infusion agar (pH 7.4). The number of the cells per plate used in the inoculum as 10^4 (10^6 cells/ml).
(§2) MIC was determined in the same manner as in the preceding paragraph (1).

Shigella flexneri = assay: MIC against clinical isolates; format: cell-based; settings: unit assumed
Experimental: as §1, §2

Salmonella typhi-murium = assay: MIC against clinical isolates; format: cell-based; settings: unit assumed
Escherichia coli NIHJ = assay: MIC against standard strain, plate method; format: cell-based; settings: unit assumed
Procedure, shortened: (§3)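 Agar plate dilution MIC in heart infusion agar, pH 7.4. Inoculum was 10^4 cells per plate, from a suspension of 10^6 cells/ml.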

Klebsiella pneumoniae [2] = assay: MIC against standard strain, plate method; format: cell-based; settings: unit assumed
Procedure, shortened: as §3

Proteus vulgaris 3027 = assay: MIC against standard strain, plate method; format: cell-based; settings: Proteus vulgaris 3027, standard strain; unit assumed
Procedure, shortened: as §3

[3] = test system: Pseudomonas aeruginosa I.F.O.; assay: MIC against standard strain, plate method; format: cell-based; settings: unit assumed
Procedure, shortened: as §3

[4] = test system: Staphylococcus aureus 209p; assay: MIC against standard strain, plate method; format: cell-based; settings: unit assumed
Procedure, shortened: as §3

Staphylococcus aureus = assay: MIC against clinical isolates; format: cell-based; settings: unit assumed
Proteus rettgeri = assay: MIC against clinical isolates; format: cell-based; settings: clinical isolate, unit assumed
Escherichia coli = assay: MIC against clinical isolates; format: cell-based; settings: unit assumed
Klebsiella pneumoniae [5] = assay: MIC against clinical isolates; format: cell-based; settings: unit assumed
Salmonella typhi = assay: MIC against clinical isolates; format: cell-based; settings: unit assumed
β-lactamase = assay: Resistant activity against β-lactamase, iodometric assay; format: biochemical, Pseudomonas aeruginosa GN 238; settings: relative to Potassium Penicillin G = 100
Experimental: (3) Resistant activity against β-lactamase, Pseudomonas aergionan GN 238:
The resistant activity of each compound against β-lactamase was measured in the manner described below.
β-Lactamase was prepared from Pseudomonas aeruginosa GN 238. This microorganism was cultured in 100 ml of a medium containing 2 g of yeast extract, 10 g of polypeptone, 2 g of glucose, 7 g of disodium hydrogen phosphate, 2 g of potassium dihydrogen phosphate, 1.2 g of ammonium sulfate and 0.4 g of magnesium sulfate, per liter, in a 500-ml Erlenmeyer flask for 6 hrs. at 37° C with shaking. The resulting cells were collected by centrifugation (5,000 r.p.m. × 10 min.), washed three times with 0.1 M phosphate buffer (pH 7.0). Subsequently, the cells were subjected to sonication (20 KHz, 20 min.) and then centrifuged at 15,000 r.p.m. for 60 min. By using the supernatant of enzyme fluid, the resistance of each compound against β-lactamase was determined by the iodometric assay method. Each numeral shown in Table 7 is a relative activity value calculated by assuming as 100 the activity of the control Potassium Penicillin G.

Pseudomonas aeruginosa = assay: MIC against clinical isolates; format: cell-based; settings: unit assumed

CCN1CCN(C(=O)N[C@@H](C(=O)N[C@@H]2C(=O)N3[C@@H]2SC(C)(C)[C@@H]3C(=O)O)c2ccccc2)C(=O)C1=O
LD50 [1]: > 5000 mg/kg

CCCCN1CCN(C(=O)N[C@@H](C(=O)N[C@@H]2C(=O)N3[C@@H]2SC(C)(C)[C@@H]3C(=O)O)c2ccccc2)C(=O)C1=O (single isomer, unassigned) [compound 39]
MIC (Proteus vulgaris): < 0.4 µg/mL | MIC (Proteus mirabilis): < 0.4 µg/mL | MIC (Proteus morganii): < 0.4 µg/mL | MIC (Shigella sonnei; clinical isolate JS 11232): 25 µg/mL (≈ 45.8 µM) | MIC (Shigella sonnei; clinical isolate JS 11755): 1.57 µg/mL (≈ 2.88 µM) | MIC (Shigella flexneri; clinical isolate JS 11215): 25 µg/mL (≈ 45.8 µM) | MIC (Shigella flexneri; clinical isolate JS 11839): 0.79 µg/mL (≈ 1.45 µM) | MIC (Salmonella typhi-murium; clinical isolate SL 858): 0.79 µg/mL (≈ 1.45 µM) | MIC (Salmonella typhi-murium; clinical isolate SL 2136): 100 µg/mL (≈ 183 µM) | MIC (Escherichia coli NIHJ): < 0.1 µg/mL | MIC (Klebsiella pneumoniae [2]): 1.57 µg/mL (≈ 2.88 µM) | MIC (Proteus vulgaris 3027): 0.4 µg/mL (≈ 0.733 µM) | MIC [3]: 6.25 µg/mL (≈ 11.5 µM) | MIC [4]: 0.4 µg/mL (≈ 0.733 µM) | MIC (Staphylococcus aureus; clinical isolate F-1): 6.25 µg/mL (≈ 11.5 µM) | MIC (Staphylococcus aureus; clinical isolate F-2): 1.57 µg/mL (≈ 2.88 µM) | MIC (Staphylococcus aureus; clinical isolate F-3): 1.57 µg/mL (≈ 2.88 µM) | MIC (Staphylococcus aureus; clinical isolate F-4): 6.25 µg/mL (≈ 11.5 µM) | MIC (Staphylococcus aureus; clinical isolate F-5): > 200 µg/mL | MIC (Staphylococcus aureus; clinical isolate MS 8588): 1.57 µg/mL (≈ 2.88 µM) | MIC (Staphylococcus aureus; clinical isolate MS 8596): 1.57 µg/mL (≈ 2.88 µM) | MIC (Staphylococcus aureus; clinical isolate MS 8619): 0.79 µg/mL (≈ 1.45 µM) | MIC (Staphylococcus aureus; clinical isolate MS 8684): 3.13 µg/mL (≈ 5.74 µM) | MIC (Staphylococcus aureus; clinical isolate MS 8713): 3.13 µg/mL (≈ 5.74 µM) | MIC (Proteus rettgeri): 6.25 µg/mL (≈ 11.5 µM) | MIC (Escherichia coli; clinical isolate GN 3435): 0.79 µg/mL (≈ 1.45 µM) | MIC (Escherichia coli; clinical isolate GN 3452): 0.79 µg/mL (≈ 1.45 µM) | MIC (Escherichia coli; clinical isolate GN 3465): 25 µg/mL (≈ 45.8 µM) | MIC (Escherichia coli; clinical isolate GN 3481): 1.57 µg/mL (≈ 2.88 µM) | MIC (Escherichia coli; clinical isolate GN 3611): > 200 µg/mL | MIC (Escherichia coli; clinical isolate K-1): 1.57 µg/mL (≈ 2.88 µM) | MIC (Escherichia coli; clinical isolate K-2): 1.57 µg/mL (≈ 2.88 µM) | MIC (Escherichia coli; clinical isolate K-3): > 200 µg/mL | MIC (Escherichia coli; clinical isolate K-4): 0.79 µg/mL (≈ 1.45 µM) | MIC (Klebsiella pneumoniae [5]; clinical isolate GN 917): 1.57 µg/mL (≈ 2.88 µM) | MIC (Klebsiella pneumoniae [5]; clinical isolate GN 3850): 3.13 µg/mL (≈ 5.74 µM) | MIC (Klebsiella pneumoniae [5]; clinical isolate GN 4081): 25 µg/mL (≈ 45.8 µM) | MIC (Klebsiella pneumoniae [5]; clinical isolate GN 4117): 25 µg/mL (≈ 45.8 µM) | MIC (Salmonella typhi; clinical isolate SL 819): 0.79 µg/mL (≈ 1.45 µM) | MIC (Salmonella typhi; clinical isolate SL 2169): 0.79 µg/mL (≈ 1.45 µM) | Relative activity (β-lactamase): 15% | MIC (Pseudomonas aeruginosa; clinical isolate GN 82): 3.13 µg/mL (≈ 5.74 µM) | MIC (Pseudomonas aeruginosa; clinical isolate GN 163): 3.13 µg/mL (≈ 5.74 µM) | MIC (Pseudomonas aeruginosa; clinical isolate GN 221): 3.13 µg/mL (≈ 5.74 µM) | MIC (Pseudomonas aeruginosa; clinical isolate GN 376): 6.25 µg/mL (≈ 11.5 µM) | MIC (Pseudomonas aeruginosa; clinical isolate GN 383): 6.25 µg/mL (≈ 11.5 µM) | MIC (Pseudomonas aeruginosa; clinical isolate GN 1035): 12.5 µg/mL (≈ 22.9 µM) | MIC (Pseudomonas aeruginosa; clinical isolate GN 1091): 3.13 µg/mL (≈ 5.74 µM) | MIC (Pseudomonas aeruginosa; clinical isolate GN 2565): 12.5 µg/mL (≈ 22.9 µM) | MIC (Pseudomonas aeruginosa; clinical isolate GN 2987): 3.13 µg/mL (≈ 5.74 µM) | MIC (Pseudomonas aeruginosa; clinical isolate GN (number not given; Table 5-3)): 6.25 µg/mL (≈ 11.5 µM) | MIC (Pseudomonas aeruginosa; clinical isolate S-1): 12.5 µg/mL (≈ 22.9 µM) | MIC (Pseudomonas aeruginosa; clinical isolate S-2): 12.5 µg/mL (≈ 22.9 µM) | MIC (Pseudomonas aeruginosa; clinical isolate S-3): 25 µg/mL (≈ 45.8 µM) | MIC (Pseudomonas aeruginosa; clinical isolate S-4): 12.5 µg/mL (≈ 22.9 µM)

CN1CCN(C(=O)N[C@@H](C(=O)N[C@@H]2C(=O)N3[C@@H]2SC(C)(C)[C@@H]3C(=O)O)c2ccccc2)C(=O)C1=O
LD50 [1]: > 5000 mg/kg
